# Assay results reported in ChEMBL document CHEMBL1806463, “Synthesis, biological evaluation and docking studies of octane-carboxamide based renin inhibitors with extended segments toward S3' site of renin” (Bioorg Med Chem, 2011).
# Target: T1, Renin (Homo sapiens) (UniProt P00797)
# T1 sequence (whole entry): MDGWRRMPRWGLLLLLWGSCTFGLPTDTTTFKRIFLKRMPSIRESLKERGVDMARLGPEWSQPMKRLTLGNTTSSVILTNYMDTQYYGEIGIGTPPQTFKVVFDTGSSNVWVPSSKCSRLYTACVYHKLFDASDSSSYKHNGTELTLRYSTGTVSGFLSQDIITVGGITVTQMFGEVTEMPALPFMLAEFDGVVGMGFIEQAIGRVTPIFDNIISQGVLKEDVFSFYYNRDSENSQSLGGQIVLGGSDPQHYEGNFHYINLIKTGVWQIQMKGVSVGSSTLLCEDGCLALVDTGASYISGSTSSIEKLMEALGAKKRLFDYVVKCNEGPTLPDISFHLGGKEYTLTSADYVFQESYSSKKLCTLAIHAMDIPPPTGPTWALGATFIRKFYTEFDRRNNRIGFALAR
# Test: Ratio IC50 for aliskiren to compound for renin
row,Ratio IC50,SMILES
1,10,COCCCOc1cc(C[C@@H](C[C@H](N)[C@@H](O)C[C@H](C(=O)NCC(C)(C)Cn2ccnn2)C(C)C)C(C)C)ccc1OC

# Target: T2, Renin (Homo sapiens, UniProt P00797)
# T2 sequence (P00797 whole entry): T1 sequence (whole entry)
# Test: Inhibition of renin measured every 30 secs for 15 mins by fluorimetric analysis
row,IC50 [nM],SMILES
1,0.36,COCCCOc1cc(C[C@@H](C[C@H](N)[C@@H](O)C[C@H](C(=O)NCC(C)(C)CNC(=O)N(C)C)C(C)C)C(C)C)ccc1OC
2,3.84,COCCCOc1cc(C[C@@H](C[C@H](N)[C@@H](O)C[C@H](C(=O)NCC(C)(C)CNC(=O)c2ccc(OC)cc2)C(C)C)C(C)C)ccc1OC
3,0.81,CCOC(=O)NCC(C)(C)CNC(=O)[C@@H](C[C@H](O)[C@@H](N)C[C@H](Cc1ccc(OC)c(OCCCOC)c1)C(C)C)C(C)C
4,1.12,CCCC(=O)NCC(C)(C)CNC(=O)[C@@H](C[C@H](O)[C@@H](N)C[C@H](Cc1ccc(OC)c(OCCCOC)c1)C(C)C)C(C)C
5,1.08,CCC(=O)NCC(C)(C)CNC(=O)[C@@H](C[C@H](O)[C@@H](N)C[C@H](Cc1ccc(OC)c(OCCCOC)c1)C(C)C)C(C)C
6,1.15,COCCCOc1cc(C[C@@H](C[C@H](N)[C@@H](O)C[C@H](C(=O)NCC(C)(C)CNS(=O)(=O)c2ccc(C)cc2)C(C)C)C(C)C)ccc1OC
7,1.02,COCCCOc1cc(C[C@@H](C[C@H](N)[C@@H](O)C[C@H](C(=O)NCC(C)(C)CNC(=O)c2ccccc2)C(C)C)C(C)C)ccc1OC
8,4.13,COCCCOc1cc(C[C@@H](C[C@H](N)[C@@H](O)C[C@H](C(=O)NCC(C)(C)CNC(=O)C(C)(C)C)C(C)C)C(C)C)ccc1OC
9,4.23,COCCCOc1cc(C[C@@H](C[C@H](N)[C@@H](O)C[C@H](C(=O)NCC(C)(C)CNS(C)(=O)=O)C(C)C)C(C)C)ccc1OC
10,1.48,COCCCOc1cc(C[C@@H](C[C@H](N)[C@@H](O)C[C@H](C(=O)NCC(C)(C)CNC(=O)CC(C)C)C(C)C)C(C)C)ccc1OC
11,0.79,COCCCOc1cc(C[C@@H](C[C@H](N)[C@@H](O)C[C@H](C(=O)NCC(C)(C)CNS(N)(=O)=O)C(C)C)C(C)C)ccc1OC
12,0.2,COCCCOc1cc(C[C@@H](C[C@H](N)[C@@H](O)C[C@H](C(=O)NCC(C)(C)Cn2ccnn2)C(C)C)C(C)C)ccc1OC
13,2.88,COCCCOc1cc(C[C@@H](C[C@H](N)[C@@H](O)C[C@H](C(=O)NCC(C)(C)CN)C(C)C)C(C)C)ccc1OC
14,4.85,COCCCOc1cc(C[C@@H](C[C@H](N)[C@@H](O)C[C@H](C(=O)NCC(C)(C)CNC(=O)C(F)(F)F)C(C)C)C(C)C)ccc1OC
15,1.64,COCCCOc1cc(C[C@@H](C[C@H](N)[C@@H](O)C[C@H](C(=O)NCC(C)(C)CNC(=O)Cc2ccccc2)C(C)C)C(C)C)ccc1OC
16,0.83,CCCCCC(=O)NCC(C)(C)CNC(=O)[C@@H](C[C@H](O)[C@@H](N)C[C@H](Cc1ccc(OC)c(OCCCOC)c1)C(C)C)C(C)C
17,0.91,CCS(=O)(=O)NCC(C)(C)CNC(=O)[C@@H](C[C@H](O)[C@@H](N)C[C@H](Cc1ccc(OC)c(OCCCOC)c1)C(C)C)C(C)C
